Assay results from the supplement of paper PMC10307832.

Key:
Assay in all cases: relative viability (nuclei count vs DMSO), 5 days (fraction); higher = more cells survive
Vismodegib + Linsitinib = compound: CS(=O)(=O)c1ccc(C(=O)Nc2ccc(Cl)c(-c3ccccn3)c2)c(Cl)c1 [Vismodegib] + C[C@]1(O)C[C@@H](c2nc(-c3ccc4ccc(-c5ccccc5)nc4c3)c3c(N)nccn32)C1 [Linsitinib] (partner 1 µM)
In short: (§1)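 Values are medians from duplicate plates. Each reflects relative viability, defined as the nuclei count of treated wells over that of vehicle wells. Lung cancer cell lines in 1536-well plates were pin-tool dosed one day after seeding with one drug alone or with a fixed anchor-drug dose plus five library-drug doses (not always all listed) in √10 steps, then fixed, stained and imaged at 4× after 5 days.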

Ruxolitinib + Luminespib = compound: N#CC[C@H](C1CCCC1)n1cc(-c2ncnc3[nH]ccc23)cn1 [Ruxolitinib] + CCNC(=O)c1noc(-c2cc(C(C)C)c(O)cc2O)c1-c1ccc(CN2CCOCC2)cc1 [Luminespib] (partner 0.01 µM)
In short: as §1

Ruxolitinib + Pemetrexed = compound: N#CC[C@H](C1CCCC1)n1cc(-c2ncnc3[nH]ccc23)cn1 [Ruxolitinib] + Nc1nc2[nH]cc(CCc3ccc(C(=O)N[C@@H](CCC(=O)O)C(=O)O)cc3)c2c(=O)[nH]1 [Pemetrexed] (partner 0.2 µM)
In short: as §1

Ruxolitinib + OSI-027 = compound: N#CC[C@H](C1CCCC1)n1cc(-c2ncnc3[nH]ccc23)cn1 [Ruxolitinib] + COc1cccc2cc(-c3nc([C@H]4CC[C@H](C(=O)O)CC4)n4ncnc(N)c34)[nH]c12 [OSI-027] (partner 0.5 µM)
In short: as §1

Cell Line | relative viability (Vismodegib + Linsitinib; first compound 0.08 µM) | relative viability (Vismodegib + Linsitinib; first compound 0.253 µM) | relative viability (Vismodegib + Linsitinib; first compound 0.8 µM) | relative viability (Vismodegib + Linsitinib; first compound 2.53 µM) | relative viability (Vismodegib + Linsitinib; first compound 8 µM) | relative viability (Ruxolitinib + Luminespib; first compound 0.08 µM) | relative viability (Ruxolitinib + Luminespib; first compound 0.253 µM) | relative viability (Ruxolitinib + Luminespib; first compound 0.8 µM) | relative viability (Ruxolitinib + Luminespib; first compound 2.53 µM) | relative viability (Ruxolitinib + Luminespib; first compound 8 µM) | relative viability (Ruxolitinib + Pemetrexed; first compound 0.08 µM) | relative viability (Ruxolitinib + Pemetrexed; first compound 0.253 µM) | relative viability (Ruxolitinib + Pemetrexed; first compound 0.8 µM) | relative viability (Ruxolitinib + Pemetrexed; first compound 2.53 µM) | relative viability (Ruxolitinib + Pemetrexed; first compound 8 µM) | relative viability (Ruxolitinib + OSI-027; first compound 0.08 µM) | relative viability (Ruxolitinib + OSI-027; first compound 0.253 µM) | relative viability (Ruxolitinib + OSI-027; first compound 0.8 µM) | relative viability (Ruxolitinib + OSI-027; first compound 2.53 µM) | relative viability (Ruxolitinib + OSI-027; first compound 8 µM)
NCI-H322M | 0.771 | 1.01 | 0.975 | 0.958 | 0.924 | 0.806 | 0.927 | 0.918 | 0.984 | 1.17 | 0.641 | 0.605 | 0.662 | 0.628 | 0.639 | 0.506 | 0.538 | 0.704 | 0.594 | 0.63
NCI-H358 | 0.777 | 0.667 | 0.712 | 0.817 | 0.765 | 0.309 | 0.238 | 0.312 | 0.362 | 0.168 | 0.174 | 0.152 | 0.177 | 0.163 | 0.126 | 0.417 | 0.654 | 0.754 | 0.406 | 0.565
NCI-H441 | 0.419 | 0.562 | 0.48 | 0.508 | 0.653 | 0.299 | 0.424 | 0.319 | 0.472 | 0.317 | 0.259 | 0.252 | 0.273 | 0.231 | 0.261 | 0.675 | 0.471 | 0.836 | 0.56 | 0.521
NCI-H460 | 0.732 | 0.74 | 0.773 | 0.733 | 1.08 | 0.0343 | 0.0362 | 0.0405 | 0.0294 | 0.027 | 0.0622 | 0.0628 | 0.0588 | 0.0628 | 0.063 | 0.686 | 0.575 | 0.721 | 0.583 | 0.615
NCI-H520 | 0.916 | 0.928 | 0.966 | 0.974 | 1.16 | 0.211 | 0.209 | 0.236 | 0.215 | 0.241 | 0.74 | 0.714 | 0.748 | 0.466 | 0.413 | 0.317 |  | 0.278 | 0.239 | 0.326
NCI-H596 | 0.976 | 1.07 | 1.1 | 1.01 | 1.15 | 1.03 | 0.889 | 1.4 | 1.17 | 1 | 0.507 | 0.481 | 0.607 | 0.462 | 0.717 | 0.826 | 0.699 | 0.841 | 0.69 | 0.758
NCI-H647 | 1.16 | 1.21 | 1.19 | 0.911 | 1.34 | 0.18 | 0.228 | 0.367 | 0.0851 | 0.144 | 0.177 | 0.189 | 0.199 | 0.162 | 0.117 | 0.73 | 0.706 | 0.797 | 0.531 | 0.595
NCI-H650 | 0.868 | 0.799 | 0.679 | 0.994 | 0.949 |  | 0.844 | 0.843 | 0.804 | 0.658 | 0.898 | 0.98 | 0.958 | 0.966 | 0.683 |  | 0.497 | 0.618 | 0.502 | 0.341
NCI-H661 | 0.5 | 0.497 | 0.575 | 0.522 | 0.579 | 0.892 | 1.01 | 0.93 | 0.94 | 0.768 | 0.925 | 0.959 | 0.939 | 1 | 0.809 | 0.752 | 0.664 | 0.834 | 0.664 | 0.666
NCI-H838 | 0.869 | 0.967 | 0.992 | 0.99 | 1.02 | 0.218 | 0.233 | 0.316 | 0.239 | 0.221 | 0.259 | 0.246 | 0.266 | 0.227 | 0.204 | 0.39 | 0.318 | 0.386 | 0.266 | 0.267
NCI-H1355 | 0.844 | 0.724 | 0.798 | 0.808 | 0.856 | 0.751 | 0.721 | 0.772 | 0.616 | 0.687 | 1.1 | 0.977 | 1.09 | 1.02 | 1.01 | 0.382 | 0.328 | 0.388 | 0.373 | 0.318
NCI-H1395 | 1.07 | 1.36 | 0.961 | 0.961 | 1.18 | 0.89 | 0.661 | 0.863 | 0.623 | 0.592 | 0.662 | 0.685 | 0.856 | 0.97 | 0.729 | 0.578 | 0.576 | 0.661 | 0.564 | 0.666
NCI-H1437 | 0.855 | 0.977 | 1.03 | 0.95 | 0.892 | 1.16 | 1.26 | 1.2 | 1.13 | 0.908 | 0.469 | 0.292 | 0.304 | 0.319 | 0.254 | 0.965 | 0.758 | 0.926 | 0.752 | 0.78
NCI-H1563 | 1.17 | 1.34 | 1.26 | 1.01 | 1.2 | 0.535 | 0.515 | 0.549 | 0.505 | 0.505 | 0.724 | 0.744 | 0.892 | 0.774 | 0.544 | 0.803 | 0.721 | 0.714 | 0.658 | 0.675
NCI-H1651 | 0.922 | 0.924 | 0.925 | 0.931 | 0.961 | 0.883 | 0.902 | 0.979 | 0.73 | 0.726 | 0.578 | 0.597 | 0.593 | 0.599 | 0.643 | 0.774 | 0.718 | 0.842 | 0.659 | 0.723
NCI-H1666 | 0.877 | 0.871 | 0.69 | 0.773 | 0.967 | 1 | 1.1 | 1.05 | 1.01 | 0.972 | 1.01 | 0.814 | 0.988 | 0.786 | 0.887 | 0.877 | 0.842 | 0.864 | 0.782 | 0.968
